Patent US20250179088A9 (ZYMEWORKS BC INC., priority 2020, published 2025)
pEC50: −log10 of the molar value.

Assays:
TLR8 = molecular target: T1, TLR8 (Homo sapiens, UniProt Q9NR97); test: Reporter gene assay, HEK-Blue TLR8 reporter cells (SEAP)
T1 sequence (Q9NR97 27-1041): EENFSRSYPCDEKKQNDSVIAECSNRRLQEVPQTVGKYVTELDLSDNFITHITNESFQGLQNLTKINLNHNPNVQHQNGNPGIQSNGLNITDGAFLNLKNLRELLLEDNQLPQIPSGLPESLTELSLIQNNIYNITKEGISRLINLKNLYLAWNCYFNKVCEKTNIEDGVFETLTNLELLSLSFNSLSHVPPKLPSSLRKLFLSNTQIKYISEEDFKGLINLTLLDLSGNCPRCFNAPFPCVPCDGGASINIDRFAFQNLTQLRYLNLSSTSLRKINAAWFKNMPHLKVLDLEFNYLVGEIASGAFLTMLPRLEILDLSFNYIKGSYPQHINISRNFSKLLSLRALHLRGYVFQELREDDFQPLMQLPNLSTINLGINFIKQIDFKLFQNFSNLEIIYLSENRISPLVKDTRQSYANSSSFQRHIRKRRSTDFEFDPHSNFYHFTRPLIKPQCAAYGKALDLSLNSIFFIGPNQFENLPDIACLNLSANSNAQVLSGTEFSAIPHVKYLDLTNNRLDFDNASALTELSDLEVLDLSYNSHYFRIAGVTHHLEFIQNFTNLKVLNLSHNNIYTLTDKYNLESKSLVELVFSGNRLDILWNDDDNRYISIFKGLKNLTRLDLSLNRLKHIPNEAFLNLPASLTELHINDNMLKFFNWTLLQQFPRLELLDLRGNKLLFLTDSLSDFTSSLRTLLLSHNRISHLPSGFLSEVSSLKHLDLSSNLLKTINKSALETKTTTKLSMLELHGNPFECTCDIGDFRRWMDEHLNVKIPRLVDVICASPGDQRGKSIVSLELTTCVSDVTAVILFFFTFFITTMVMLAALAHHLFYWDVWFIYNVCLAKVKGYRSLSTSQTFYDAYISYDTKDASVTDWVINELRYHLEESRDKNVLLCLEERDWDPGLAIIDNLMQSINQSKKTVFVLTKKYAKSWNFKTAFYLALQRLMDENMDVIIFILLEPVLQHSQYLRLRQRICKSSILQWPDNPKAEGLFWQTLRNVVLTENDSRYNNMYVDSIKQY
Procedure: (§1) 3×10^4 HEK-Blue™ TLR7 or 3×10^4 TLR8 reporter cells (InvivoGen, San Diego, CA) were treated with titrated (4-fold) amounts of test compound. […] Cells were incubated overnight at 37° C. and 5% CO2, then absorbance (620 and 655 nm) was read on a Synergy™ H1 microplate reader.

TLR7 = molecular target: T2, TLR7 (Homo sapiens, UniProt Q9NYK1); test: Reporter gene assay, HEK-Blue TLR7 reporter cells (SEAP)
T2 sequence (Q9NYK1 27-1049): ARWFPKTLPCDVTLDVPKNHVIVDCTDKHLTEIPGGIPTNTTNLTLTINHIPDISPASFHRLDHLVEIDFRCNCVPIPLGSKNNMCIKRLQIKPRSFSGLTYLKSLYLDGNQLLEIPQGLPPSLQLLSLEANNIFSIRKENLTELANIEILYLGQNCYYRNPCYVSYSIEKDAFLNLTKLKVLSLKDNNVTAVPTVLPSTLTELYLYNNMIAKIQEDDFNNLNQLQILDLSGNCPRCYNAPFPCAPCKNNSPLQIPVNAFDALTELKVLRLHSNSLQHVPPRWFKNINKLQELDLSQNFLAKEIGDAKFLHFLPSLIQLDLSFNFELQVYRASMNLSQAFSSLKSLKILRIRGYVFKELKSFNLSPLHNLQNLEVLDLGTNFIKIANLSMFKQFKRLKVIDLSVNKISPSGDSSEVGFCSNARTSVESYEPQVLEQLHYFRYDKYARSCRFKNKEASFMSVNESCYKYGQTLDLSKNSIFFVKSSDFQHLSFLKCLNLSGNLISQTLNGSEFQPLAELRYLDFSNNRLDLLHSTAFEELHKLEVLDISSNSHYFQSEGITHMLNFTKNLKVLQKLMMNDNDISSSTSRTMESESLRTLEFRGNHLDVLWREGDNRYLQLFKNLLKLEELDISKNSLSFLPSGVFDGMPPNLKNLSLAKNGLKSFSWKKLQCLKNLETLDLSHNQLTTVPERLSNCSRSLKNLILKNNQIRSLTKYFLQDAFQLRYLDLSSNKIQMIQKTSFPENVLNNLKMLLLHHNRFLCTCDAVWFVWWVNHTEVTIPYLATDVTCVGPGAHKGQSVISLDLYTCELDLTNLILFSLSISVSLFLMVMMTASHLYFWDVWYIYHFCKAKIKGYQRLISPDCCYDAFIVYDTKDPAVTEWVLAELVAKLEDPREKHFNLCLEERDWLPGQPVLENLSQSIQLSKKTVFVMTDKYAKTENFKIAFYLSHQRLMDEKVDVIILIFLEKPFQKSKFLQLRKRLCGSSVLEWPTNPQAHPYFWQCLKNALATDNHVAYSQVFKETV
Procedure: as §1

PBMCs = test: PBMC assay, IL-6 release (HTRF); format: cell-based; details: PBMCs from healthy donors, overnight, IL-6 induction by HTRF, average of quadruplicate
Procedure: Whole peripheral blood was obtained from healthy donors. PBMCs were isolated from peripheral blood by density gradient centrifugation. […] The plasma layer containing PBMCs was poured into a new tube and washed twice. Isolated PBMCs were either used fresh or thawed from previously frozen. 1×10^5 PBMCs were cultured with titrating concentrations of compounds of Formula I overnight followed by assaying for cytokines by homogeneous time resolved fluorescence (HTRF).

| SMILES | pEC50 (TLR8) | pEC50 (TLR7) | pEC50 (PBMCs) |
| --- | --- | --- | --- |
| CCCCc1nc2c(N)nc3ccsc3c2n1Cc1ccc(CN[C@H](CO)[C@@H](C)CC)cc1 [Compound 296, (2S,3S)-2-((4-((4-amino-2-butyl-1H-imidazo[4,5-d]thieno[3,2-b]pyridin-1-yl)methyl)benzyl)amino)-3-methylpentan-1-ol] | 6.87 | > 9.00 | – |
| CCCCc1nc2c(N)nc3ccsc3c2n1Cc1cccc(CN(CC)CC)c1 [Compound 199, 2-butyl-1-(3-((diethylamino)methyl)benzyl)-1H-imidazo[4,5-d]thieno[3,2-b]pyridin-4-amine] | 6.37 | 6.89 | 6.48 |
| CCOCc1nc2c(N)nc3ccsc3c2n1Cc1ccc(CN2CCNCC2)cc1 [Compound 289, 2-(ethoxymethyl)-1-(4-(piperazin-1-ylmethyl)benzyl)-1H-imidazo[4,5-d]thieno[3,2-b]pyridin-4-amine] | < 6.00 | 8.05 | – |
| CCCCc1nc2c(N)nc3ccsc3c2n1Cc1ccc(CNCc2ccc(CNC(=O)OC(C)(C)C)cc2)cc1 [Compound 155, tert-butyl (4-(((4-((4-amino-2-butyl-1H-imidazo[4,5-d]thieno[3,2-b]pyridin-1-yl)methyl)benzyl)amino)methyl)benzyl)carbamate] | < 6.00 | 6.35 | 6.96 |
| CCOCc1nc2c(N)nc3ccsc3c2n1Cc1ccc(CN[C@H](CO)[C@@H](C)CC)cc1 [Compound 292, (2S,3S)-2-((4-((4-amino-2-(ethoxymethyl)-1H-imidazo[4,5-d]thieno[3,2-b]pyridin-1-yl)methyl)benzyl)amino)-3-methylpentan-1-ol] | 6.17 | 8.52 | – |
| CCOCc1nc2c(N)nc3ccsc3c2n1Cc1ccc(CN(CC)CC)cc1 [Compound 290, 1-(4-((diethylamino)methyl)benzyl)-2-(ethoxymethyl)-1H-imidazo[4,5-d]thieno[3,2-b]pyridin-4-amine] | 5.99 | 8.40 | – |
| CCOCc1nc2c(N)nc3ccsc3c2n1Cc1ccc(CNCc2cc[nH]c2)cc1 [Compound 293, 1-(4-((((1H-pyrrol-3-yl)methyl)amino)methyl)benzyl)-2-(ethoxymethyl)-1H-imidazo [4,5-d]thieno[3,2-b]pyridin-4-amine] | < 6.00 | 8.15 | – |
| CCCCc1nc2c(N)nc3ccsc3c2n1Cc1ccc(CN2CCN(CCc3ccccn3)CC2)cc1 [Compound 275, 2-butyl-1-(4-((4-(2-(pyridin-2-yl)ethyl)piperazin-1-yl)methyl)benzyl)-1H-imidazo[4,5-d]thieno[3,2-b]pyridin-4-amine] | < 6.00 | < 6.00 | – |
| CCCCc1nc2c(N)nc3ccsc3c2n1Cc1ccc(CN(CCC)CCC)cc1 [Compound 277, 2-butyl-1-(4-((dipropylamino)methyl)benzyl)-1H-imidazo[4,5-d]thieno[3,2-b]pyridin-4-amine] | 6.39 | > 9.00 | – |
| CCOCc1nc2c(N)nc3ccsc3c2n1Cc1ccc(CNC2CC(F)(F)C2)cc1 [Compound 291, 1-(4-(((3,3-difluorocyclobutyl)amino)methyl)benzyl)-2-(ethoxymethyl)-1H-imidazo[4,5-d]thieno[3,2-b]pyridin-4-amine] | 5.95 | 7.85 | – |
| CCCCc1nc2c(N)nc3ccsc3c2n1Cc1ccc(CNCCC(=O)N[C@@H](Cc2cnc[nH]2)C(=O)O)cc1 [Compound 301, (3-((4-((4-amino-2-butyl-1H-imidazo[4,5-d]thieno[3,2-b]pyridin-1-yl)methyl)benzyl)amino)propanoyl)-L-histidine] | < 6.00 | 6.46 | – |

Further lines, with some results ahead:

| pEC50 (TLR8) | pEC50 (TLR7) | SMILES | pEC50 (PBMCs) |
| --- | --- | --- | --- |
| < 6.00 | 7.28 | CCCCc1nc2c(N)nc3ccsc3c2n1Cc1ccc(CN2CCC(CNC(=O)OC(C)(C)C)CC2)cc1 [Compound 263, tert-butyl ((1-(4-((4-amino-2-butyl-1H-imidazo[4,5-d]thieno[3,2-b]pyridin-1-yl)methyl)benzyl)piperidin-4-yl)methyl)carbamate] | 6.07 |
| < 6.00 | 8.42 | CCCCc1nc2c(N)nc3ccsc3c2n1Cc1ccc(CN2CCCCC2)cc1 [Compound 151, 2-butyl-1-(4-(piperidin-1-ylmethyl)benzyl)-1H-imidazo[4,5-d]thieno[3,2-b]pyridin-4-amine] | 7.70 |
| < 6.00 | < 6.00 | CCCCc1nc2c(N)nc3ccsc3c2n1Cc1ccc(CN2CCC[C@H]2C(=O)O)cc1 [Compound 300, (4-((4-amino-2-butyl-1H-imidazo[4,5-d]thieno[3,2-b]pyridin-1-yl)methyl)benzyl)-L-proline] | – |
| < 6.00 | 6.35 | CCCCc1nc2c(N)nc3ccsc3c2n1Cc1ccc(CN(CC(=O)O)CC(=O)O)cc1 [Compound 299, 2,2′-((4-((4-amino-2-butyl-1H-imidazo[4,5-d]thieno[3,2-b]pyridin-1-yl)methyl)benzyl)azanediyl)diacetic acid] | – |
| < 6.00 | 6.80 | CCCCc1nc2c(N)nc3ccsc3c2n1Cc1ccc(CN[C@H](C(=O)O)[C@@H](C)O)cc1 [Compound 298, (4-((4-amino-2-butyl-1H-imidazo[4,5-d]thieno[3,2-b]pyridin-1-yl)methyl)benzyl)-L-threonine] | – |
| < 6.00 | 6.17 | CCCCc1nc2c(N)nc3ccsc3c2n1Cc1ccc(CN[C@H](C(=O)O)[C@@H](C)CC)cc1 [Compound 297, (4-((4-amino-2-butyl-1H-imidazo[4,5-d]thieno[3,2-b]pyridin-1-yl)methyl)benzyl)-L-isoleucine] | – |
| < 6.00 | < 6.00 | CCCCc1nc2c(N)nc3ccsc3c2n1Cc1ccc(C[N+]23CCN(CC2)CC3)cc1 [Compound 295, 1-(4-((4-amino-2-butyl-1H-imidazo[4,5-d]thieno[3,2-b]pyridin-1-yl)methyl)benzyl)-1,4-diazabicyclo[2.2.2]octan-1-ium] | – |
| < 6.00 | > 9.00 | CCCCc1nc2c(N)nc3ccsc3c2n1Cc1ccc(C[n+]2ccccc2)cc1 [Compound 279, 1-(4-((4-amino-2-butyl-1H-imidazo[4,5-d]thieno[3,2-b]pyridin-1-yl)methyl)benzyl) pyridin-1-ium] | – |
| < 6.00 | 6.97 | CCCCc1nc2c(N)nc3ccsc3c2n1Cc1ccc(CNCCCC[C@H](N)C(=O)O)cc1 [Compound 305, N^6-(4-((4-amino-2-butyl-1H-imidazo[4,5-d]thieno[3,2-b]pyridin-1-yl)methyl)benzyl)-L-lysine] | – |
| < 6.00 | 7.48 | CCCCc1nc2c(N)nc3ccsc3c2n1Cc1ccc(CNc2nnc[nH]2)cc1 [Compound 272, 1-(4-(((4H-1,2,4-triazol-3-yl)amino)methyl)benzyl)-2-butyl-1H-imidazo[4,5-d]thieno [3,2-b]pyridin-4-amine] | – |
